Columns and labels:
[1] = system: Duroc×Landrace×Yorkshire cross-bred bacon-type piglets; assay: Effect on the production performance of hogs (14-day feeding trial); format: in vivo; conditions: 25 ppm in feed; for ADFI (average daily feed intake) / ADG (average daily weight gain) / FCR (feed conversion ratio): 14 days, piglets
Text: 480 67-day-old Duroc×Landrace×Yorkshire cross-bred bacon-type piglets with similar body weight, were randomly divided into 16 groups, with 3 replications per group, 10 piglets per replication and equal amounts of males and females. The pig pen and tools were sterilized before the trial. In the trial, the piglets were kept in separate regions in the same pig pen under the same feeding and management conditions, were given a free hand with the feed and the water, and were fed twice a day. The groups were known as control group (group 1) and test groups 2 to 16. The piglets of the control group were fed with basal formula feed only, while those of the test groups 2 to 16 were respectively fed with basal formula feed mixed with different additives, wherein the active ingredient of the additives was a hexahydro-β-acid compound or a prodrug of a hexahydro-β-acid compound provide herein, and the content thereof in the feed was 5 or 25 ppm as shown in Table 4.
The trial lasted for 14 days. During the trial, each test group was not fed with other antioxidants or growth enhancers. On the 14th day, each test group was fed with no feed but water for 12 hours, and the piglets of each replication as one unit were weighed to calculate the average daily feed intake (ADFI, g/d per piglet), the average daily weight gain (ADG, g/d per piglet), and the feed conversion ratio (FCR). Average daily feed intake=(Total weight of provided feed−Weight of residual feed)/(Days of the trial×Number of piglets in each replicate) Average daily weight gain=(final average body weight−initial average body weight)/Days of the trial Feed conversion ratio=average daily feed intake/average daily weight gain

[2] = Long-term stability in feeds at room temperature (25° C.±2° C., RH 60%±10%; HPLC); format: physicochemical; conditions: for stability / content in feeds at room temperature (in words): during the testing period
Text: Feeds: ZUSF's premixed feed (A mixture of crushed Feed A and crushed Feed B at a weight ratio of 2:1, wherein Feed A was a 5.33% multi-premixed feed for piglets from ZUSF's Hao-Ru-Zhen-Jing, and B was a 2.67% multi-premixed feed for piglets from ZUSF's Hao-Ru-Zhen-Jing); creep feed for piglets from CP FEED; INSIGHTER's feed for broiler; 4% premixed feed from GUANGDONG CO-POWER.
Preparation of a sample of 1% premix of Ingredient: 1 g of an ingredient was respectively weighed out and evenly mixed with 99 g of corncob meal in a mixer to give a sample of 1% premix of an ingredient.
Preparation of a sample of 500 ppm feed of an ingredient: The sample of 1% premix of an ingredient was diluted step by step using the ZUSF's remixed feed to 5000 ppm and 500 ppm to give the sample of 500 ppm feed of an ingredient for later testing.
Preparation of a sample of 100 ppm feed of an ingredient: sample of 1% premix of an ingredient was diluted step by step using the creep feed for piglets from CP FEED to 1000 ppm and then 100 ppm to give the sample of 100 ppm feed of an ingredient for later testing.
Preparation of a sample of 100 ppm feed of an ingredient: The sample of 1% premix of an ingredient was diluted step by step using the INSIGHTER's feed for broiler to 1000 ppm and 100 ppm to give the sample of 100 ppm feed of an ingredient for later testing.
Preparation of a sample of 2000 ppm feed of an ingredient: The sample of 1% premix of an ingredient was diluted step by step using the 4% premixed feed from GUANGDONG CO-POWER to 5000 ppm and 2000 ppm to give the sample of 2000 ppm feed of an ingredient for later testing.
Method: Three replications of each feed sample were tested at the condition of 25° C.±2° C. and RH 60%±10%, wherein the replications of each feed sample were sampled in parallel for HPLC analysis on day 5, day 10, day 15, day 30, day 60, and day 90.
25.0 mg of an ingredient was accurately weighed out and dissolved in an appropriate amount of methanol or n-hexane by ultrasonication. The solution was then transferred to a volumetric flask and diluted to 50 mL to give a 500 ppm (by wt.) stock solution. The samples from the stock solution were diluted with methanol or n-hexane respectively to a concentration of 10 ppm, 25 ppm, 50 ppm, 100 ppm, and 250 ppm of work solution, and then the working solutions were filtered by 0.22 μm organic membranes. Between the concentration of a sample and the response value of HPLC peak area thereof, the linearity was adjusted and detected to give a standard curve.
5.0000 g of the samples sampled at different time intervals were respectively accurately weighed out, and dissolved in 25 mL of methanol or n-hexane by ultrasonication for 10 minutes. The resulting solutions were filtered by organic membranes and then analyzed by HPLC.
• Equipment: Waters e2695 with PDA detector. • Mobile phase: 0.02% phosphoric acid:methanol=5:95 (v:v). • Column: Symmetry Cis column (Waters; 250 mm×4.6 mm, 5 μm). • Wavelength: 235 nm. • Temperature of the Column: 25° C. • Injection volume: 10 μL. • Flow rate: 1 mL/min. Normal Phase Chromatography: • Equipment: Shimadzu LC-14C/SPD-15C. • Column: SuperSil NH2 column ([…]; 250 mm×4.6 mm). • Mobile phase: n-hexane:isopropanol=60:40 (v:v). • Wavelength: 235 nm. • Temperature of the Column: 25° C. • Injection volume: 20 μL. • Flow rate: 1 mL/min. 3: Results

[3] = 100 ppm in INSIGHTER's broiler feed, Day 5
[4] = 100 ppm in INSIGHTER's broiler feed, Day 15
[5] = 100 ppm in INSIGHTER's broiler feed, Day 30
[6] = 100 ppm in INSIGHTER's broiler feed, Day 60
[7] = 100 ppm in INSIGHTER's broiler feed, Day 90
[8] = 100 ppm in creep feed for piglets from CP FEED, Day 5
[9] = 100 ppm in creep feed for piglets from CP FEED, Day 15
[10] = 100 ppm in creep feed for piglets from CP FEED, Day 30
[11] = 100 ppm in creep feed for piglets from CP FEED, Day 60
[12] = 100 ppm in creep feed for piglets from CP FEED, Day 90
[13] = 500 ppm in ZUSF's premixed feed, Day 15
[14] = 500 ppm in ZUSF's premixed feed, Day 30
[15] = 500 ppm in ZUSF's premixed feed, Day 60
[16] = 500 ppm in ZUSF's premixed feed, Day 90

| Molecule | ADFI (average daily feed intake) [1] [g/d per piglet] | ADG (average daily weight gain) [1] [g/d per piglet] | FCR (feed conversion ratio) [1] | Residual amount of active ingredient [2, 3] [%] | Residual amount of active ingredient [2, 4] [%] | Residual amount of active ingredient [2, 5] [%] | Residual amount of active ingredient [2, 6] [%] | Residual amount of active ingredient [2, 8] [%] | Residual amount of active ingredient [2, 9] [%] | Residual amount of active ingredient [2, 10] [%] | Residual amount of active ingredient [2, 11] [%] | Residual amount of active ingredient [2, 12] [%] | other results |
| --- | --- | --- | --- | --- | --- | --- | --- | --- | --- | --- | --- | --- | --- |
| CCCC(=O)OC1=C(CCC(C)C)C(=O)C(CCC(C)C)(CCC(C)C)C(O)=C1C(=O)C(C)CC (centres unmarked) [Hexahydro-adlupulone mono-butyrate, hexahydro-adlupulone mono-butyrate] | 883 | 398 | 2.221 | – | – | – | – | – | – | – | – | – | – |
| CCC(=O)OC1=C(CCC(C)C)C(=O)C(CCC(C)C)(CCC(C)C)C(O)=C1C(=O)C(C)CC (centres unmarked) [Hexahydro-adlupulone mono-propionate, hexahydro-adlupulone mono-propionate] | 876 | 393 | 2.228 | – | – | – | – | – | – | – | – | – | – |
| CCC(C)C(=O)C1=C(O)C(CCC(C)C)(CCC(C)C)C(=O)C(CCC(C)C)=C1O (centres unmarked) [Hexahydro-adlupulone, reference compound] | 860 | 384 | 2.240 | – | – | – | – | – | – | – | – | – | – |
| CCCC(=O)OC1=C(CCC(C)C)C(=O)C(CCC(C)C)(CCC(C)C)C(OC(=O)CCC)=C1C(=O)C(C)C [Hexahydro-colupulone di-butyrate, hexahydro-colupulone di-butyrate] | 950 | 413 | 2.298 | – | – | – | – | – | – | – | – | – | – |
| CCC(=O)OC1=C(CCC(C)C)C(=O)C(CCC(C)C)(CCC(C)C)C(OC(=O)CC)=C1C(=O)C(C)C [Hexahydro-colupulone di-propionate, hexahydro-colupulone di-propionate] | 926 | 415 | 2.231 | – | – | – | – | – | – | – | – | – | – |
| CCCCCCCCCCCC(=O)OC1=C(CCC(C)C)C(=O)C(CCC(C)C)(CCC(C)C)C(O)=C1C(=O)C(C)C [hexahydro-colupulone mono-laurate] | 918 | 383 | 2.399 | 99.63 | 99.65 | 99.68 | 98.68 | – | – | – | – | – | Residual amount of active ingredient [2, 7]: 98.47%; Residual amount of active ingredient ([2]; 1000 ppm in INSIGHTER's broiler feed, Day 5): 101.19%; Residual amount of active ingredient ([2]; 1000 ppm in INSIGHTER's broiler feed, Day 15): 101.72%; Residual amount of active ingredient ([2]; 1000 ppm in INSIGHTER's broiler feed, Day 30): 98.60%; Residual amount of active ingredient ([2]; 1000 ppm in INSIGHTER's broiler feed, Day 60): 97.85%; Residual amount of active ingredient ([2]; 1000 ppm in INSIGHTER's broiler feed, Day 90): 95.26%; effects on the performance of piglets compared with mono-acetate and mono-butyrate (in words) [1]: not as significant |
| disodium salt of hexahydro-colupulone mono-phosphate [reference compound] | – | – | – | 86.64 | 83.77 | 81.32 | 76.53 | 66.59 | 58.39 | 55.80 | 47.76 | 44.33 | Residual amount of active ingredient [2, 7]: 62.97% |
| hexahydro-colupulone mono-hexanoate | 913 | 383 | 2.386 | 98.90 | 97.72 | 96.58 | 95.77 | 102.18 | 96.14 | 95.30 | 95.20 | 95.55 | Residual amount of active ingredient [2, 13]: 87.50%; Residual amount of active ingredient [2, 14]: 89.00%; Residual amount of active ingredient [2, 15]: 86.07%; Residual amount of active ingredient [2, 16]: 83.77%; stability / content in feeds at room temperature (in words) [2]: relatively poor in some of the feeds; effects on the performance of piglets compared with mono-acetate and mono-butyrate (in words) [1]: not as significant |
| hexahydro-colupulone mono-pentanoate | – | – | – | 98.84 | 98.12 | 97.73 | 96.64 | 100.94 | 98.82 | 96.92 | 96.01 | 95.61 | Residual amount of active ingredient [2, 13]: 94.29%; Residual amount of active ingredient [2, 14]: 94.80%; Residual amount of active ingredient [2, 15]: 88.17%; Residual amount of active ingredient [2, 16]: 89.14%; stability / content in feeds at room temperature (in words) [2]: relatively poor in some of the feeds |

Reference: US12673915B2, “Precursor compound of hexahydro-beta-acid component compound, feed composition and use thereof” (WISORIG TECHNOLOGIES PTE. LIMITED, priority 2020, dated 2026)
